Source: patent US20250214925A1, “CATIONIC LIPID, LIPOSOME, LIPID NANOPARTICLE, AND USE” (CARCELL BIOPHARMA LTD., priority 2022, published 2025)

Key:
[1] = LNP size and PDI by dynamic laser light scattering; type: physicochemical; conditions: LNP: 50% cationic lipid, 38.5% cholesterol, 10% DSPC, 1.5% DMG-PEG2000; Ffluc mRNA
In short: (§1)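 LNPs of cationic lipid/cholesterol/DSPC/DMG-PEG2000 at 50/38.5/10/1.5 mol% in ethanol, mixed with Ffluc mRNA at 0.2 mg/mL in 10 mM pH 4.0 citrate via T-mixer at 40 mL/min. Dialyzed overnight against 50 mM Tris-buffered saline pH 7.4 and sieved; PDI by dynamic light scattering, encapsulation by Ribogreen.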

[2] = mRNA encapsulation efficiency of LNP by Ribogreen assay; type: physicochemical; conditions: LNP: 50% cationic lipid, 38.5% cholesterol, 10% DSPC, 1.5% DMG-PEG2000; Ffluc mRNA
In short: as §1

mice [3] = test: In vivo delivery of Ffluc mRNA LNP in mice, intravenous administration, luminescence relative to MC3; set-up: species or system mice (female Balb/C); conditions: fold change in luminescence intensity relative to MC3; 0.06 mg/kg tail vein; 6 h after injection
In short: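 Female Balb/C mice (18-22 g, 6-8 weeks, n=5) received Ffluc mRNA LNP at 0.06 mg/kg by tail vein in 50 mM TBS pH 7.4. Six hours later, intraperitoneal D-luciferin was given and whole-body luminescence imaged, with each lipid reported as fold change relative to MC3 LNP.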

mice [4] = test: In vivo delivery of Ffluc mRNA LNP in mice, intramuscular administration, luminescence relative to MC3; set-up: species or system mice (female Balb/C); conditions: fold change in luminescence intensity relative to MC3; 50 μL of 0.1 mg/mL mRNA LNP into right thigh; 6 h after injection
Description: The prepared encapsulation solution was applied to mice in the following manner, and its delivery efficiency in mice was tested. Among them, DLin-MC3-DMA (MC3) was a cationic liposome for delivering small nucleic acids that was approved by the FDA for marketing in 2018, which has high nucleic acid drug delivery efficiency and biosafety, and was usually used as the industry gold standard in the screening process of cationic lipids. In the evaluation of mice experiments, the ratio of nucleic acid delivery efficiency normalized to MC3 was greater than 0.1, which was considered to be a cationic lipid with high delivery efficiency.
The LNP solution was diluted with 50 mM TBS, pH 7.4 to a concentration of 0.1 mg/mL mRNA.
2. The mice involved in this study were female Balb/C, weighing 18-22 g, 6-8 weeks old, with 5 mice in each group.
3. The dosing solution was kept at 4° C. prior to injection.
4. 50 μL of LNP solution was injected into the right thigh of the mice.
5. The mice were injected intraperitoneally with 200 μL of 1.5 mg/mL D-luciferin solution 6 h after injection.
6. The in vivo luminescence images of the mice were obtained using the IVIS system (Aniview).
7. The luminescence intensity of each mice was measured using Aniview software.
8. MC3 lipid nanoparticles were used as a positive control. The in vivo efficacy of each cationic lipid tested was recorded as the fold change in luminescence intensity relative to MC3 (ratio normalized to MC3).

SMILES | PDI [1] | Size (nm) [1] | Encapsulation Rate [2] | In Vivo Efficacy Normalized To Mc3 In Mice (Intravenous Injection) (mice [3]) | In Vivo Efficacy Normalized To Mc3 In Mice (Intramuscular Injection) (mice [4])
CCCCCC/C(=C\C(=O)OCCCCCCCCCCN(CCCO)CCCCCCCCCCOC(=O)/C=C(/CCCC)CCCCCC)CCCC [CPL-152, ((3-hydroxypropyl)azanediyl)bis(decane-10,1-diyl) (2Z,2′Z)-bis(3-butylnon-2-enoate)] | 0.05 | 72.18 nm | 95% | 2.03 | 2.62
CCCCCCCCCC/C(=C/C(=O)OCCCCCCN(CCCO)CCCCCCOC(=O)/C=C(\CCCC)CCCCCCCCCC)CCCC [CPL-066, ((3-hydroxypropyl)azanediyl)bis(hexane-6,1-diyl) (2E,2′E)-bis(3-butyl-2-tridecenoate)] | 0.19 | 87.2 nm | 98% | 1.95 | 4.04
CCCCCCCCCC/C(=C\C(=O)OCCCCCCCN(CCCO)CCCCCCCOC(=O)/C=C(/CCCCCCCC)CCCCCCCCCC)CCCCCCCC [CPL-101, ((3-hydroxypropyl)azanediyl)bis(heptane-7,1-diyl)(2Z,2′Z)-bis(3-octyltridec-2-enoate)] | 0.0791 | 69.38 nm | 95% | 2.90 | 1.76
CCCCCC/C(=C/C(=O)OCCCCCCCCN(CCCCO)CCCCCCCCOC(=O)/C=C(\CCCC)CCCCCC)CCCC [CPL-457-01, ((4-hydroxybutyl)azanediyl)bis(octane-8,1-diyl) (2E,2′E)-bis(3-butylnon-2-enoate)] | 0.078 | 73 nm | 90% | 5.49 | 12.13
CCCCCCC/C(=C/C(=O)OCCCCCCN(CCCO)CCCCCCOC(=O)/C=C(\CCCC)CCCCCCC)CCCC [CPL-074, ((3-hydroxypropyl)azanediyl)bis(hexane-6,1-diyl) (2E,2′E)-bis(3-butyldec-2-enoate)] | 0.3691 | 95.7 nm | 99% | 2.40 | 7.93
CCCCCCCCCC/C(=C\C(=O)OCCCCCCN(CCCO)CCCCCCOC(=O)/C=C(/CCCCC)CCCCCCCCCC)CCCCC [CPL-070, ((3-hydroxypropyl)azanediyl)bis(hexane-6,1-diyl) (2Z,2′Z)-bis(3-pentyltridec-2-enoate)] | 0.2173 | 100.4 nm | 95% | 3.74 | 1.85
CCCCCCCCCC/C(=C\C(=O)OCCCCN(CCCO)CCCCOC(=O)/C=C(/CCCCC)CCCCCCCCCC)CCCCC [CPL-026, ((3-hydroxypropyl)azanediyl)bis(butane-4,1-diyl) (2Z,2′Z)-bis(3-pentyltridec-2-enoate)] | 0.2143 | 71.34 nm | 95% | 2.51 | 0.92
CCCCCCC/C(=C/C(=O)OCCCCN(CCCO)CCCCOC(=O)/C=C(\CCCCCC)CCCCCCC)CCCCCC [CPL-031, ((3-hydroxypropyl)azanediyl)bis(butane-4,1-diyl) (2E,2′E)-bis(3-hexyldec-2-enoate)] | 0.2448 | 92.39 nm | 94% | 0.75 | 
CCCCCCC/C(=C/C(=O)OCCCCCCCCCCCN(CCCO)CCCCCCCCCCCOC(=O)/C=C(\CCCC)CCCCCCC)CCCC [CPL-184, ((3-hydroxypropyl)azanediyl)bis(undecane-11,1-diyl) (2E,2′E)-bis(3butyldec-2-enoate)] | 0.173 | 84.6 nm | 94% | 0.98 | 
CCCCC/C=C\C/C=C\CCCCCCCC(=O)OCC(COC(=O)/C=C(/CCCCCCCC)CCCCCCCCCC)COC(=O)OCC1CCN(CC)CC1 (centres unmarked) [CPL-453] | 0.0653 | 81.2 nm | 98% | 0.82 | 
CCCCC/C=C\C/C=C\CCCCCCCC(=O)OCC(COC(=O)/C=C(\CCCCCCC)CCCCCCCC)COC(=O)OCCCN(CC)CC (centres unmarked) [CPL-274, 3-(((3-(diethylamino)propoxy)carbonyl)oxy)-2-((((E)-3-heptylundec-2-enoyl)oxy)methyl)propyl(9Z,12Z)-octadeca-9,12-dienoate] | 0.1812 | 78.29 nm | 97% | 0.37 | 
CCCCC/C=C\C/C=C\CCCCCCCC(=O)OCC(COC(=O)C=C(CCCCCCCC)CCCCCCCC)COC(=O)OCCN(C)C (centres unmarked) [CPL-210, 3-(((2-(dimethylamino)ethoxy)carbonyl)oxy)-2-(((3-octylundec-2-enoyl)oxy)methyl)propyl(9Z,12Z)-octadeca-9,12-dienoate] | 0.2144 | 52.37 nm | 83% | 0.14 | 
CCCCC/C=C\C/C=C\CCCCCCCC(=O)OCC(COC(=O)/C=C(/CCCC)CCCCCC)COC(=O)OCCCN1CCCCC1 (centres unmarked) [CPL-416, 3-(((Z)-3-butylnon-2-enoyl)oxy)-2-((((3-(piperidin-1-yl)propoxy)carbonyl)oxy)methyl)propyl(9Z,12Z)-octadeca-9,12-dienoate] | 0.009 | 91.52 nm | 96% | 0.43 | 
CCCCC/C=C\C/C=C\CCCCCCCC(=O)OCC(COC(=O)C=C(CCCCCCCCCC)CCCCCCCCCC)COC(=O)OCC1CCN(CC)CC1 (centres unmarked) [CPL-454, 3-((3-decyltridec-2-enoyl)oxy)-2-(((((1-ethylpiperidin-4-yl)methoxy)carbonyl)oxy)methyl)propyl(9Z,12Z)-octadeca-9,12-dienoate] | 0.1315 | 83.51 nm | 99% | 0.88 | 
CCCCC/C=C\C/C=C\CCCCCCCC(=O)OCC(COC(=O)/C=C(\CCCCC)CCCCCC)COC(=O)OCCCN(C)C (centres unmarked) [CPL-222, 3-(((3-(dimethylamino)propoxy)carbonyl)oxy)-2-((((E)-3-pentylnon-2-enoyl)oxy)methyl)propyl(9Z,12Z)-octadeca-9,12-dienoate] | 0.0629 | 72.01 nm | 96% | 0.37 | 
CCCCC/C=C\C/C=C\CCCCCCCC(=O)OCC(COC(=O)/C=C(\CCCCCC)CCCCCCCCCC)COC(=O)OCC1CCCN(C)C1 (centres unmarked) [CPL-381, 3-(((E)-3-hexyltridec-2-enoyl)oxy)-2-(((((1-methylpiperidin-3-yl)methoxy)carbonyl)oxy)methyl)propyl(9Z,12Z)-octadeca-9,12-dienoate] | 0.1174 | 83.86 nm | 91% | 0.81 | 
